Data reported in US10544440B2, “Multiple protease deficient filamentous fungal cells and methods of use thereof” (Glykos Finland OY, priority 2013, dated 2020).
Square brackets hold non-standard residues; d marks the D form. Peptide text beside a SMILES is read from it. * marks the point of attachment. Sta = CC(C)C[C@H](N)[C@@H](O)CC(=O)O; Isovaleryl = CC(C)CC(=O)*

Tests used:
M393 strain = assay: FGF21 production by M393 in 24 well cultures treated with protease inhibitors; format: cell-based, Trichoderma reesei; details: M393 24 well culture, 10 μM pepstatin A added, day 6
Protocol: The M393 strain was grown with and without protease inhibitors pepstatin A, chymostatin, or soybean trypsin inhibitor. Independent wells were chosen for control wells where no inhibitors were added. This strain was grown in 3 ml of TrMM with diammonium citrate without ammonium sulfate, 100 mM PIPPS, 20 g/L spent grain extract, 40 g/L lactose adjusted to pH 4.5. The 24 well plates were shaken at 800 rpm at 85% humidity. The plate was covered with an air permeable membrane and the cultures were grown for 6 days.
Inhibitors were added first on day 3 and then added daily until day 6. 200 μl samples were taken from the culture wells beginning on day 3. The mycelium was spun down for 5 minutes at 13 k and the supernatant collected. From the culture supernatant 5 μl plus LSB was loaded in a 4-20% SDS PAGE gel and immunoblotting made on nitrocellulose with rabbit anti-FGF21 (2 μg/ml) and goat anti-rabbit IgG AP conjugated secondary antibody diluted 1:10,000. FGF21 standard were included on the blot for quantification.

M1200 strain = assay: Inhibitor studies on FGF21 production strain M1200 in 24 well culture; format: cell-based, Trichoderma reesei; details: M1200 24 well culture, inhibitors 10 μM, SBTI 0.1 mg/ml; for FGF21 expression, lower band / FGF21 expression, total product / FGF21 expression, upper band: day 4 immunoblot
Description: Chymostatin and SBTI are known to inhibit SLP2 and SLP7 subtilisin proteases that are still expressed in the M1200 strain. Pepstatin inhibits aspartic proteases such as PEP8, PEP11, PEP12 which are known to be secreted into the supernatant. 1,10-phenathroline targets mainly zinc metalloproteases which are secreted by Trichoderma. The M1200 strain was cultivated in 24 well format in TrMM with 10 g/L yeast extract, 20 g/L cellobiose, 10 g/L sorbose, PIPPS buffered at pH 4.5. Chymostatin, phenathroline, and pepstatin were used at a final concentration of 10 μM and SBTI was used at 0.1 mg/ml. Each treatment was done in duplicate wells and the untreated control was cultured in 4 wells.
The cultures were started by adding 1×10^7 spores into 50 ml of culture medium and adding 3 ml of culture medium plus spores to each well (6×10^5 spores/well). 100 μl of each culture supernatant was collected on days 4, 5, and 6. The mycelium was spun down to remove only the supernatant. Orange LSB was added and the samples were heated for 5 minutes. 2 μl of the supernatant+LSB was loaded per well into 4-20% Criterion TGX gel. The gel was run and proteins were transferred to nitrocellulose membranes.
The expressed FGF21 was detected by immunoblotting as above. A commercially purchased N-terminal antibody rabbit polyclonal from Abcam (#ab66564) and C-terminal rabbit polyclonal antibody from Abcam (#ab137715) were used in some cases.

| Molecule | FGF21 production (M393 strain) | FGF21 expression, lower band (M1200 strain) | FGF21 expression, total product (M1200 strain) | FGF21 expression, upper band (M1200 strain) | effect of inhibitor treatment on FGF21 forms (immunoblot) (M1200 strain) |
| --- | --- | --- | --- | --- | --- |
| CC(C)CC(=O)N[C@H](C(=O)N[C@H](C(=O)N[C@@H](CC(C)C)[C@@H](O)CC(=O)N[C@@H](C)C(=O)N[C@@H](CC(C)C)[C@@H](O)CC(=O)O)C(C)C)C(C)C [pepstatin, pepstatin A] (Isovaleryl-VV[Sta]A[Sta]-OH) | up to 160 mg/L | 51050 Fluorescent units | 52660 Fluorescent units | 1610 Fluorescent units | only improved the expression level of the 10 kD form |
| c1cnc2c(c1)ccc1cccnc12 [1,10-phenathroline] | – | 68800 Fluorescent units | 69574 Fluorescent units | 774 Fluorescent units | only improved the expression level of the 10 kD form |
| CC(C)C[C@H](NC(=O)[C@@H](NC(=O)N[C@@H](Cc1ccccc1)C(=O)O)[C@@H]1CCN=C(N)N1)C(=O)N[C@H](C=O)Cc1ccccc1 [chymostatin] | – | 19500 Fluorescent units | 53700 Fluorescent units | 34200 Fluorescent units | improved the stability of the protein allowing a 17 kD major product |
| SBTI: soybean trypsin inhibitor, protease inhibitor (protein, UniProt P01070 25-205, looked up) Trypsin inhibitor A: DFVLDNEGNPLENGGTYYILSDITAFGGIRAAPTGNERCPLTVVQSRNELDKGIGTIISSPYRIRFIAEGHPLSLKFDSFAVIMLCVGIPTEWSVVEDLPEGPAVKIGENKDAMDGWFRLERVSDDEFNNYKLVFCPQQAEDDKCGDIGISIDHDDGTRRLVVSKNKPLVVQFQKLDKESL | – | 37050 Fluorescent units | 50850 Fluorescent units | 13800 Fluorescent units | only improved the expression level of the 10 kD form |
